Data as given in patent US20230023092A1, “TREATMENT OF DEPRESSION AND OTHER VARIOUS DISORDERS WITH PSILOCYBIN” (COMPASS […], priority 2019, published 2023).

Tests used:
Assay type in all cases: in vivo, human
[1] = test system: healthy subjects; experiment: Five-Dimensional Altered States of Consciousness (5D-ASC) questionnaire; conditions: for 5D-ASC Anxiety, Mean / 5D-ASC Audio-visual synaesthesia, Mean / 5D-ASC Auditory alteration, Mean / 5D-ASC Blissful state, Mean / 5D-ASC Changed meaning of percepts, Mean / 5D-ASC Complex imagery, Mean / 5D-ASC Disembodiment, Mean / 5D-ASC Dread of ego dissolution, Mean / 5D-ASC Elementary imagery, Mean / 5D-ASC Experience of unity, Mean / 5D-ASC Impaired control and cognition, Mean / 5D-ASC Insightfulness, Mean / 5D-ASC Oceanic boundlessness, Mean / 5D-ASC Spiritual experience, Mean / 5D-ASC Vigilance reduction, Mean / 5D-ASC Visual restructuralisation, Mean: Post-Treatment Day 0, LS mean; for 5D-ASC Anxiety, Mean difference / 5D-ASC Audio-visual synaesthesia, Mean difference / 5D-ASC Auditory alteration, Mean difference / 5D-ASC Blissful state, Mean difference / 5D-ASC Changed meaning of percepts, Mean difference / 5D-ASC Complex imagery, Mean difference / 5D-ASC Disembodiment, Mean difference / 5D-ASC Dread of ego dissolution, Mean difference / 5D-ASC Elementary imagery, Mean difference / 5D-ASC Experience of unity, Mean difference / 5D-ASC Impaired control and cognition, Mean difference / 5D-ASC Insightfulness, Mean difference / 5D-ASC Oceanic boundlessness, Mean difference / 5D-ASC Spiritual experience, Mean difference / 5D-ASC Vigilance reduction, Mean difference / 5D-ASC Visual restructuralisation, Mean difference: Post-Treatment Day 0
Text: In some embodiments, the Five Dimension Altered States of Consciousness questionnaire (5D-ASC) is utilized to evaluate the safety and/or efficacy of psilocybin. […] The 5 dimensions include oceanic boundlessness, anxious ego dissolution, visionary restructuralization, auditory alterations and reduction of vigilance.

[2] = test system: healthy subjects; experiment: Pictorial Empathy Test (PET)
Method: In some embodiments, the Pictorial Empathy Test (PET) is utilized to evaluate the effect of psilocybin on affective empathy.
(§1) The Pictorial Empathy Test (PET), Reading the Mind in the Eyes Test (RMET), Scale of Social Responsibility (SSR), Social Value Orientation (SVO), and Toronto Empathy Questionnaire (TEQ) were performed. Table 20 summarizes the results of the mixed model for repeated measures (MMRM) analysis for each of the aforementioned social cognition panel scales measured on Day 7 and Day 84 after study drug administration.

[3] = test system: healthy subjects; experiment: Reading the Mind in the Eyes Test (RMET)
Text: In some embodiments, Reading the Mind in the Eyes Test (RMET) is utilized to evaluate the safety and/or efficacy of psilocybin. The RMET has 36 items, in which subjects are presented with a photograph of the eyes region of the face and must choose 1 of 4 adjectives or phrases to describe the mental state of the person pictured. A definition handout is provided at the beginning of the task and a practice item precedes the first trial.
as §1

[4] = Day 7, psilocybin 10 mg - placebo
[5] = Day 7, psilocybin 25 mg - 10 mg
[6] = Day 7, psilocybin 25 mg - placebo
[7] = Day 84, psilocybin 10 mg - placebo
[8] = Day 84, psilocybin 25 mg - 10 mg
[9] = Day 84, psilocybin 25 mg - placebo

CN(C)CCc1c[nH]c2cccc(OP(=O)(O)O)c12 [Psilocybin, psilocybin]
5D-ASC Anxiety, Mean ([1]; Psilocybin 10 mg): 15.7 | 5D-ASC Audio-visual synaesthesia, Mean ([1]; Psilocybin 10 mg): 74.7 | 5D-ASC Auditory alteration, Mean ([1]; Psilocybin 10 mg): 20.3 | 5D-ASC Blissful state, Mean ([1]; Psilocybin 10 mg): 59.1 | 5D-ASC Changed meaning of percepts, Mean ([1]; Psilocybin 10 mg): 46.6 | 5D-ASC Complex imagery, Mean ([1]; Psilocybin 10 mg): 53.0 | 5D-ASC Disembodiment, Mean ([1]; Psilocybin 10 mg): 52.7 | 5D-ASC Dread of ego dissolution, Mean ([1]; Psilocybin 10 mg): 21.7 | 5D-ASC Elementary imagery, Mean ([1]; Psilocybin 10 mg): 76.5 | 5D-ASC Experience of unity, Mean ([1]; Psilocybin 10 mg): 54.4 | 5D-ASC Impaired control and cognition, Mean ([1]; Psilocybin 10 mg): 27.9 | 5D-ASC Insightfulness, Mean ([1]; Psilocybin 10 mg): 53.9 | 5D-ASC Oceanic boundlessness, Mean ([1]; Psilocybin 10 mg): 55.7 | 5D-ASC Spiritual experience, Mean ([1]; Psilocybin 10 mg): 48.7 | 5D-ASC Vigilance reduction, Mean ([1]; Psilocybin 10 mg): 35.3 | 5D-ASC Visual restructuralisation, Mean ([1]; Psilocybin 10 mg): 59.1 | 5D-ASC Anxiety, Mean difference ([1]; Psilocybin 10 mg-Placebo): 14.6 | 5D-ASC Audio-visual synaesthesia, Mean difference ([1]; Psilocybin 10 mg-Placebo): 66.6 | 5D-ASC Auditory alteration, Mean difference ([1]; Psilocybin 10 mg-Placebo): 18.6 | 5D-ASC Blissful state, Mean difference ([1]; Psilocybin 10 mg-Placebo): 50.9 | 5D-ASC Changed meaning of percepts, Mean difference ([1]; Psilocybin 10 mg-Placebo): 44.4 | 5D-ASC Complex imagery, Mean difference ([1]; Psilocybin 10 mg-Placebo): 48.6 | 5D-ASC Disembodiment, Mean difference ([1]; Psilocybin 10 mg-Placebo): 45.8 | 5D-ASC Dread of ego dissolution, Mean difference ([1]; Psilocybin 10 mg-Placebo): 20.5 | 5D-ASC Elementary imagery, Mean difference ([1]; Psilocybin 10 mg-Placebo): 63.6 | 5D-ASC Experience of unity, Mean difference ([1]; Psilocybin 10 mg-Placebo): 47.1 | 5D-ASC Impaired control and cognition, Mean difference ([1]; Psilocybin 10 mg-Placebo): 26.2 | 5D-ASC Insightfulness, Mean difference ([1]; Psilocybin 10 mg-Placebo): 47.6 | 5D-ASC Oceanic boundlessness, Mean difference ([1]; Psilocybin 10 mg-Placebo): 47.7 | 5D-ASC Spiritual experience, Mean difference ([1]; Psilocybin 10 mg-Placebo): 44.6 | 5D-ASC Vigilance reduction, Mean difference ([1]; Psilocybin 10 mg-Placebo): 20.0 | 5D-ASC Visual restructuralisation, Mean difference ([1]; Psilocybin 10 mg-Placebo): 52.6 | 5D-ASC Anxiety, Mean ([1]; Psilocybin 25 mg): 32.4 | 5D-ASC Audio-visual synaesthesia, Mean ([1]; Psilocybin 25 mg): 75.4 | 5D-ASC Auditory alteration, Mean ([1]; Psilocybin 25 mg): 30.7 | 5D-ASC Blissful state, Mean ([1]; Psilocybin 25 mg): 61.9 | 5D-ASC Changed meaning of percepts, Mean ([1]; Psilocybin 25 mg): 46.1 | 5D-ASC Complex imagery, Mean ([1]; Psilocybin 25 mg): 64.9 | 5D-ASC Disembodiment, Mean ([1]; Psilocybin 25 mg): 53.8 | 5D-ASC Dread of ego dissolution, Mean ([1]; Psilocybin 25 mg): 31.9 | 5D-ASC Elementary imagery, Mean ([1]; Psilocybin 25 mg): 76.9 | 5D-ASC Experience of unity, Mean ([1]; Psilocybin 25 mg): 60.9 | 5D-ASC Impaired control and cognition, Mean ([1]; Psilocybin 25 mg): 32.7 | 5D-ASC Insightfulness, Mean ([1]; Psilocybin 25 mg): 64.4 | 5D-ASC Oceanic boundlessness, Mean ([1]; Psilocybin 25 mg): 62.9 | 5D-ASC Spiritual experience, Mean ([1]; Psilocybin 25 mg): 57.9 | 5D-ASC Vigilance reduction, Mean ([1]; Psilocybin 25 mg): 45.7 | 5D-ASC Visual restructuralisation, Mean ([1]; Psilocybin 25 mg): 65.2 | 5D-ASC Anxiety, Mean difference ([1]; Psilocybin 25 mg-10 mg): 16.7 | 5D-ASC Audio-visual synaesthesia, Mean difference ([1]; Psilocybin 25 mg-10 mg): 0.7 | 5D-ASC Auditory alteration, Mean difference ([1]; Psilocybin 25 mg-10 mg): 10.5 | 5D-ASC Blissful state, Mean difference ([1]; Psilocybin 25 mg-10 mg): 2.8 | 5D-ASC Changed meaning of percepts, Mean difference ([1]; Psilocybin 25 mg-10 mg): −0.5 | 5D-ASC Complex imagery, Mean difference ([1]; Psilocybin 25 mg-10 mg): 11.9 | 5D-ASC Disembodiment, Mean difference ([1]; Psilocybin 25 mg-10 mg): 1.1 | 5D-ASC Dread of ego dissolution, Mean difference ([1]; Psilocybin 25 mg-10 mg): 10.1 | 5D-ASC Elementary imagery, Mean difference ([1]; Psilocybin 25 mg-10 mg): 0.4 | 5D-ASC Experience of unity, Mean difference ([1]; Psilocybin 25 mg-10 mg): 6.5 | 5D-ASC Impaired control and cognition, Mean difference ([1]; Psilocybin 25 mg-10 mg): 4.7 | 5D-ASC Insightfulness, Mean difference ([1]; Psilocybin 25 mg-10 mg): 10.5 | 5D-ASC Oceanic boundlessness, Mean difference ([1]; Psilocybin 25 mg-10 mg): 7.2 | 5D-ASC Spiritual experience, Mean difference ([1]; Psilocybin 25 mg-10 mg): 9.2 | 5D-ASC Vigilance reduction, Mean difference ([1]; Psilocybin 25 mg-10 mg): 10.3 | 5D-ASC Visual restructuralisation, Mean difference ([1]; Psilocybin 25 mg-10 mg): 6.1 | 5D-ASC Anxiety, Mean difference ([1]; Psilocybin 25 mg-Placebo): 31.3 | 5D-ASC Audio-visual synaesthesia, Mean difference ([1]; Psilocybin 25 mg-Placebo): 67.3 | 5D-ASC Auditory alteration, Mean difference ([1]; Psilocybin 25 mg-Placebo): 29.1 | 5D-ASC Blissful state, Mean difference ([1]; Psilocybin 25 mg-Placebo): 53.6 | 5D-ASC Changed meaning of percepts, Mean difference ([1]; Psilocybin 25 mg-Placebo): 43.9 | 5D-ASC Complex imagery, Mean difference ([1]; Psilocybin 25 mg-Placebo): 60.5 | 5D-ASC Disembodiment, Mean difference ([1]; Psilocybin 25 mg-Placebo): 46.9 | 5D-ASC Dread of ego dissolution, Mean difference ([1]; Psilocybin 25 mg-Placebo): 30.6 | 5D-ASC Elementary imagery, Mean difference ([1]; Psilocybin 25 mg-Placebo): 64.0 | 5D-ASC Experience of unity, Mean difference ([1]; Psilocybin 25 mg-Placebo): 53.6 | 5D-ASC Impaired control and cognition, Mean difference ([1]; Psilocybin 25 mg-Placebo): 30.9 | 5D-ASC Insightfulness, Mean difference ([1]; Psilocybin 25 mg-Placebo): 58.2 | 5D-ASC Oceanic boundlessness, Mean difference ([1]; Psilocybin 25 mg-Placebo): 54.9 | 5D-ASC Spiritual experience, Mean difference ([1]; Psilocybin 25 mg-Placebo): 53.7 | 5D-ASC Vigilance reduction, Mean difference ([1]; Psilocybin 25 mg-Placebo): 30.4 | 5D-ASC Visual restructuralisation, Mean difference ([1]; Psilocybin 25 mg-Placebo): 58.7 | PET change from baseline (LS mean) ([2]; Day 7, psilocybin 10 mg): −0.3 | PET change from baseline, LS mean difference [2, 4]: −0.1 | PET change from baseline (LS mean) ([2]; Day 7, psilocybin 25 mg): 0.0 | PET change from baseline, LS mean difference [2, 5]: 0.3 | PET change from baseline, LS mean difference [2, 6]: 0.2 | PET change from baseline (LS mean) ([2]; Day 84, psilocybin 10 mg): −0.3 | PET change from baseline, LS mean difference [2, 7]: −0.1 | PET change from baseline (LS mean) ([2]; Day 84, psilocybin 25 mg): −0.1 | PET change from baseline, LS mean difference [2, 8]: 0.3 | PET change from baseline, LS mean difference [2, 9]: 0.1 | RMET change from baseline (LS mean) ([3]; Day 7, psilocybin 10 mg): 0.4 | RMET change from baseline, LS mean difference [3, 4]: 0.1 | RMET change from baseline (LS mean) ([3]; Day 7, psilocybin 25 mg): 0.4 | RMET change from baseline, LS mean difference [3, 5]: 0.0 | RMET change from baseline, LS mean difference [3, 6]: 0.2 | RMET change from baseline (LS mean) ([3]; Day 84, psilocybin 10 mg): 0.1 | RMET change from baseline, LS mean difference [3, 7]: 0.2 | RMET change from baseline (LS mean) ([3]; Day 84, psilocybin 25 mg): 0.4 | RMET change from baseline, LS mean difference [3, 8]: 0.3 | RMET change from baseline, LS mean difference [3, 9]: 0.5
